≈ marks a conversion by molar mass, not a printed value.
Experiments:
[1] = tested on: coxsackievirus type B4 (CB4); test: Inhibition of CB4 plaque formation in LLC-MK2 cells; format: cell-based; conditions: for CI CB4 (C)/(A): CI = CD50 (LLC-MK2)/IC50 (plaque); for IC50: Coxsackievirus, plaque reduction, LLC-MK2 cells, 37° C.
[2] = tested on: rhinovirus type 14 (HRV14); test: Inhibition of HRV14 plaque formation in HeLa cells; format: cell-based; conditions: for IC50: Enterovirus, HRV14, plaque reduction, HeLa cells, 33° C.; for CI HRV14 (D)/(B): CI = CD50 (HeLa)/IC50 (plaque)
[3] = tested on: poliovirus type 2 (Polio2); test: microbe, parasite or virus in culture; format: cell-based; conditions: for CI Polio2 (C)/(A): CI = CD50 (LLC-MK2)/IC50 (plaque); for IC50: Enterovirus C, LLC-MK2, read-out: IC50 Polio2
in vitro [4] = conditions: monkey, llc-mk2 cells
[5] = tested on: enterovirus type 70 (EV70); test: Inhibition of EV70 plaque formation in LLC-MK2 cells; format: cell-based; conditions: for CI EV70 (C)/(A): CI = CD50 (LLC-MK2)/IC50 (plaque); for IC50: Enterovirus D, plaque reduction, LLC-MK2 cells, 33° C.
[6] = tested on: coxsackievirus type B4 (CB4); test: Inhibition of CB4 cytopathogenic effect (CPE) in LLC-MK2 cells; format: cell-based; conditions: for IC50: Coxsackievirus, * Virus CPE inhibition assay, LLC-MK2 cells, 37° C.; for CI CB4 (C)/(A): CI = CD50 (LLC-MK2)/IC50 (virus CPE)
[7] = tested on: enterovirus type 70 (EV70); test: Inhibition of EV70 cytopathogenic effect (CPE) in LLC-MK2 cells; format: cell-based; conditions: for IC50: Enterovirus D, * Virus CPE inhibition assay, LLC-MK2 cells, 33° C.; for CI EV70 (C)/(A): CI = CD50 (LLC-MK2)/IC50 (virus CPE)
in vitro [8] = conditions: human, hela cells

SMILES	CI CB4 (C)/(A) [1]	IC50 [1] [µg/mL]	IC50 [2] [µg/mL]	CI Polio2 (C)/(A) [3]	IC50 [3] [µg/mL]	CC50 (in vitro [4]) [µg/mL]	CI EV70 (C)/(A) [5]	IC50 [5] [µg/mL]	IC50 [6] [µg/mL]	IC50 [7] [µg/mL]	CI CB4 (C)/(A) [6]	CI EV70 (C)/(A) [7]	CI HRV14 (D)/(B) [2]	CC50 (in vitro [8]) [µg/mL]
CCc1cc2nc(CNc3ccncc3)[nH]c2cc1Cl [XXXII]	7	12.5 (≈ 43.6 µM)	< 1	3	35 (≈ 122 µM)	88.4 (≈ 308 µM)	134	0.66 (≈ 2.3 µM)						
Ic1ccc2[nH]c(CNc3ccncc3)nc2c1 [III]	> 3	33 (≈ 94.2 µM)	6.2 (≈ 17.7 µM)		> 100	> 100	> 15	6.5 (≈ 18.6 µM)						
Ic1ccc(-n2c(CNc3ccncc3)nc3ccccc32)cc1 [LXI]						> 100			> 100	> 100				
CCn1c(CNc2ccncc2)nc2ccccc21 [XI]	1,768	3.2 (≈ 12.7 µM)				5660 (≈ 22400 µM)				> 100				
Cc1ccc2c(c1)nc(CNc1ccncc1)n2C [XXXVI]						> 100				> 100				
Cc1cc(C)c(-n2c(CNc3ccncc3)nc3ccccc32)c(C)c1 [LXXII]						> 100			> 100	> 100				
Cc1cccc(-n2c(CNc3ccncc3)nc3ccccc32)c1 [LXIII]						> 100	> 18	5.6 (≈ 17.8 µM)	5.6 (≈ 17.8 µM)		> 18			
Clc1ccc2c(c1)nc(CNc1ccncc1)n2-c1ccccc1 [XLVI]						> 100			1.8 (≈ 5.38 µM)	13.2 (≈ 39.4 µM)	> 56	> 8		
Cc1ccc(-n2c(CNc3ccncc3)nc3ccccc32)cc1 [XXII]	2,946	0.48 (≈ 1.53 µM)	38 (≈ 121 µM)		> 10	1410 (≈ 4500 µM)	2,719	0.52 (≈ 1.65 µM)						
c1ccc(-n2c(CNc3ccncc3)nc3ccccc32)cc1 [XXI]	943	1.5 (≈ 4.99 µM)	> 50	29	48 (≈ 160 µM)	1410 (≈ 4710 µM)	943	1.5 (≈ 4.99 µM)						
Brc1ccc(-n2c(CNc3ccncc3)nc3ccccc32)cc1 [LX]	> 100	1 (≈ 2.64 µM)	39.9 (≈ 105 µM)		> 50	> 100	> 53	1.9 (≈ 5.01 µM)					> 3	> 100
CCn1c(CNc2ccncc2)nc2cc(C)ccc21 [XL, 1-ethyl-2-(4-pyridylaminomethyl)-5-methyl benzimidazole]						> 100			56.2 (≈ 211 µM)	> 100	> 2			
CC(C)n1c(CNc2ccncc2)nc2ccccc21.Cl [XIII, 1-isopropyl-2-(4-pyridylaminomethyl)benzimidazole hydrochloride]	> 1	85				> 100				> 100				
Clc1ccc2nc(CNc3ccncc3)n(-c3ccccc3)c2c1 [XLVII]	> 250	1.2 (≈ 3.58 µM)	4.4 (≈ 13.1 µM)		> 100	> 300	> 130	2.3 (≈ 6.87 µM)					4	17.8 (≈ 53.2 µM)
Clc1ccc(-n2c(CNc3ccncc3)nc3ccccc32)cc1Cl [LXIX]						> 100			5.6 (≈ 15.2 µM)	5.6 (≈ 15.2 µM)	> 18	> 18		
CCCCc1ccc2[nH]c(CNc3ccncc3)nc2c1 [VII]						56.2 (≈ 200 µM)	3	17.8 (≈ 63.5 µM)						
Fc1cc2nc(CNc3ccncc3)[nH]c2cc1Cl [XXXV]	> 3	34 (≈ 123 µM)	15.5 (≈ 56 µM)		> 100	> 100	> 15	6.8 (≈ 24.6 µM)						
CCc1ccc2c(c1)nc(CNc1ccncc1)n2CC [XLI]						> 100			> 100	> 100				
Cc1cc2nc(CNc3ccncc3)[nH]c2cc1F [XXX]		> 50	8.6 (≈ 33.6 µM)		> 100	> 100	> 8	12 (≈ 46.8 µM)						
CC(C)CCn1c(CNc2ccncc2)nc2ccccc21.Cl [L, 1-isoamyl-2-(4-pyridylaminomethyl)benzimidazole hydrochloride]	4,159	0.34	> 100	329	4.3	1410	1,010	1.4						
Cn1c(CNc2ccncc2)nc2ccc(Cl)cc21 [XXXIX]	> 1	82 (≈ 301 µM)	> 50		> 100	> 100	> 2	50 (≈ 183 µM)						
CC=Cn1c(CNc2ccncc2)nc2ccccc21 [XIV]	> 36	56.2 (≈ 213 µM)				> 2000				> 100				
c1ccc(Cn2c(CNc3ccncc3)nc3ccccc32)cc1 [XXIV, 1-benzyl-2-(4-pyridylaminomethyl)benzimidazole]			> 50			> 2000			56.2 (≈ 179 µM)	> 100	> 36			

SMILES	CI CB4 (C)/(A) [1]	IC50 [1] [µg/mL]	IC50 [2] [µg/mL]	CI Polio2 (C)/(A) [3]	IC50 [3] [µg/mL]	CC50 (in vitro [4]) [µg/mL]	CI EV70 (C)/(A) [5]	IC50 [5] [µg/mL]	IC50 [6] [µg/mL]	IC50 [7] [µg/mL]	CI CB4 (C)/(A) [6]	CI EV70 (C)/(A) [7]	CI HRV14 (D)/(B) [2]	CC50 (in vitro [8]) [µg/mL]
CCc1ccc(-n2c(CNc3ccncc3)nc3ccccc32)cc1 [LXVI]	> 37	2.7 (≈ 8.22 µM)	> 100		> 100	> 100		> 100						
CC(C)(C)c1ccc2[nH]c(CNc3ccncc3)nc2c1 [VIII]						> 100				> 100				
COc1ccccc1-n1c(CNc2ccncc2)nc2ccccc21 [LXVII]									> 100	> 100				
CCCc1ccc2[nH]c(CNc3ccncc3)nc2c1 [V]		> 100			> 100	354 (≈ 1330 µM)	93	3.8 (≈ 14.3 µM)						
OCCn1c(CNc2ccncc2)nc2ccccc21 [XX]		> 100				> 2000				> 100				
FC(F)(F)c1ccc(-n2c(CNc3ccncc3)nc3ccccc32)cc1 [LXIV]						> 100			5.6 (≈ 15.2 µM)	> 100	> 18			
Fc1ccc(-n2c(CNc3ccncc3)nc3ccccc32)cc1 [XXIII]	> 2,410	0.83 (≈ 2.61 µM)	30 (≈ 94.2 µM)	> 256	7.8 (≈ 24.5 µM)	> 2000	> 1,818	1.1 (≈ 3.46 µM)						
COc1ccc(-n2c(CNc3ccncc3)nc3ccccc32)cc1 [LXVIII]						> 100			5.6 (≈ 16.9 µM)	> 100	> 18			
CCCCCCCCn1c(CNc2ccncc2)nc2ccccc21 [XIX]	24	14.8 (≈ 44 µM)				354 (≈ 1050 µM)				> 100				
CCCCn1c(CNc2ccncc2)nc2ccccc21 [XV]	> 5,405	0.37 (≈ 1.32 µM)	> 50	> 625	3.2 (≈ 11.4 µM)	> 2000	> 1,429	1.4 (≈ 4.99 µM)						
c1ccc(-c2ccc3[nH]c(CNc4ccncc4)nc3c2)cc1 [IX]						> 100				> 100				
COc1cc2nc(CNc3ccncc3)[nH]c2cc1OC [XXXIV]						> 100				> 100				
CCc1cc2[nH]c(CNc3ccncc3)nc2cc1Br [XXXI, 2-(4-pyridylaminomethyl)-5(6)-ethyl-6(5)-bromobenzimidazole]		> 10	1.4 (≈ 4.23 µM)	1	82 (≈ 248 µM)	88.4 (≈ 267 µM)	74	1.2 (≈ 3.62 µM)						
OCCCn1c(CNc2ccncc2)nc2ccccc21 [LI]			> 100			> 1000			56.2 (≈ 199 µM)	> 100	18			
Cn1c(CNc2ccncc2)nc2ccccc21 [X]	> 31	32 (≈ 134 µM)	> 100	> 6	170 (≈ 713 µM)	> 1000	> 30	33 (≈ 138 µM)						
c1ccc2c(c1)nc(CNc1ccncc1)n2C1CCCC1 [XVII]			> 50			1410 (≈ 4840 µM)			5.6 (≈ 19.2 µM)	> 100	> 253			
c1ccc(CCCn2c(CNc3ccncc3)nc3ccccc32)cc1 [LVI]						> 100			> 100	> 100				
CCCCCn1c(CNc2ccncc2)nc2ccccc21 [XVI]	> 2,828	< 0.5	> 50	74	19 (≈ 64.5 µM)	1410 (≈ 4800 µM)	643	2.2 (≈ 7.47 µM)						
CCCCn1c(CNc2ccncc2)nc2cc(C)ccc21 [XLII]	1,010	1.4 (≈ 4.76 µM)	> 50	51	27.6 (≈ 93.7 µM)	1410 (≈ 4800 µM)	240	5.9 (≈ 20 µM)						
Cc1ccccc1-n1c(CNc2ccncc2)nc2ccccc21 [LXII]						> 100			> 100	> 100				
CCCCCCn1c(CNc2ccncc2)nc2ccccc21 [XVIII]	544	1.3 (≈ 4.21 µM)			> 100	707 (≈ 2290 µM)	16	44 (≈ 143 µM)						
OCCCCn1c(CNc2ccncc2)nc2ccccc21 [LII]						> 100			17.8 (≈ 60.1 µM)	> 100	> 6			

Source: patent publication US4818761A, “2-(4-pyridylaminomethyl)-benzimidazole derivatives having antiviral activity” (priority 1986, dated 1989)
